Usually ED50 stands for the dose that gives a 50% effect, or the effect in half of the subjects. Lower therefore signals an effect at a small dose.

This passage reports ED50 results from patent US5952326A, “Tetralin and chroman derivatives useful in the treatment of asthma, arthritis and related diseases” (Pfizer Inc., priority 1997, dated 1999).

The test system of the assay is PAF (platelet activating factor) lethality. The assay is described as follows: PAF lethality assay procedure. The conditions noted are these: Mus musculus, po, positive control, mice treated orally 45 minutes before i.v. PAF injection, approximate. Format: in vivo, mice (CD1 males). Here is the method: To evaluate the compounds of the formula (I) in vivo, they are tested by the so-called PAF lethality assay procedure:
Mice: CD1 males, all approximately the same weight (approximately 26 grams), 12 per group.
Vehicle for oral drug dosing: EES (5% ethanol, 5% emulphor, 90% saline). Stored at room temperature.
Drugs: For routine screening at 50 mg/kg, 20 mg drug is dissolved in 4 ml EES, using sonication in a sonicator bath or grinding in a Ten Broeck grinder to dissolve drug if necessary. If solubility is still a problem, the drug is used as a suspension.
Vehicle for i.v. Injection: Saline with 2.5 mg/ml Bovine Serum Albumin (BSA, Sigma #A4378) and 0.05 mg/ml Propranolol (Sigma #P0884). Prepared fresh daily and kept at room temperature.
Platelet Activating Factor (PAF): A 10 microm stock solution is prepared by dissolving 1 mg PAF (Calbiochem #429460) in 0.18 ml ethanol. This is stored at -20° C. and is diluted in vehicle (see above) the day of use. The concentration of PAF used is calibrated so that when injected at 0.1 ml/10 grams body weight, it will kill approximately 80% of untreated controls. This is usually about […] (a 1 to 2034 dilution from stock). […]
45 minutes before PAF injection, mice are treated orally with drug using 0.1 ml/10 grams body weight. […] Results are expressed as percent mortality as compared to controls. […]

`O=C1CCN(c2ccccc2)N1` [Phenidone] showed an ED50 of roughly 25 mg/kg.
